Data: BindingDB's records for doi:10.1016/j.bmcl.2011.01.001 (Abbott Laboratories, 2011)

Target: Aurora kinase A (Homo sapiens) (UniProt O14965)
Test: Inhibition of aurora 2

Sequence of Aurora kinase A (Homo sapiens) (O14965 whole entry, looked up): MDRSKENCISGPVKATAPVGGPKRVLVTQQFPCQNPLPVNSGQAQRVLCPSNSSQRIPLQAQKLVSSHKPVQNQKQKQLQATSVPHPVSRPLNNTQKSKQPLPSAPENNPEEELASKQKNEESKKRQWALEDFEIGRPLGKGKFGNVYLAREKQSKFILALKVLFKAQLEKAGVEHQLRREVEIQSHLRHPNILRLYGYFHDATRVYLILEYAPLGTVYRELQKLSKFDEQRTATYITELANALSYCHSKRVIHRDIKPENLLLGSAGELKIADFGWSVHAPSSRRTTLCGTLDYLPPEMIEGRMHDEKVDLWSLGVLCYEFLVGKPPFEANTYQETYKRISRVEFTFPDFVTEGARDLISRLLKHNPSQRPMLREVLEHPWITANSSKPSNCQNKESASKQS

Ki [µM] | Structure (SMILES)
> 4.9 | c1ccc(-c2c(-c3ccc4[nH]ncc4c3)nc3ncccn23)cc1 [2-(1H-indazol-5-yl)-3-phenylimidazo[1,2-a]pyrimidine]
4.45 | Cc1nc(-c2ccc3[nH]ncc3c2)cs1 [4-(1H-indazol-5-yl)-2-methylthiazole]
2.12 | Nc1nc(-c2ccc3[nH]ncc3c2)cs1 [4-(1H-indazol-5-yl)thiazol-2-amine]
> 4.9 | Fc1ccc(-c2ncn(CCCN3CCOCC3)c2-c2ccc3[nH]ncc3c2)cc1 [4-(3-(4-(4-fluorophenyl)-5-(1H-indazol-5-yl)-1H-imidazol-1-yl)propyl)morpholine]
> 4.9 | Fc1ccc(-c2ncn(C3CCN(Cc4ccccc4)C3)c2-c2ccc3[nH]ncc3c2)cc1 (centres undefined) [5-(1-(1-benzylpyrrolidin-3-yl)-4-(4-fluorophenyl)-1H-imidazol-5-yl)-1H-indazole]
2.81 | Clc1ccc(Nc2c(-c3ccc4[nH]ncc4c3)nc3ncccn23)cc1 [N-(4-chlorophenyl)-2-(1H-indazol-5-yl)imidazo[1,2-a]pyrimidin-3-amine]
> 4.9 | c1ccc(CNc2nc(-c3ccc4[nH]ncc4c3)c(-c3ccccc3)s2)cc1 [N-benzyl-4-(1H-indazol-5-yl)-5-phenylthiazol-2-amine]
3.41 | CCNc1nc(-c2ccc3[nH]ncc3c2)cs1 [N-ethyl-4-(1H-indazol-5-yl)thiazol-2-amine]

The remaining lines, values behind:

Structure (SMILES) | Ki [µM]
CN(C)CCn1cnc(-c2ccc(F)cc2)c1-c1ccc2[nH]ncc2c1 [2-(4-(4-fluorophenyl)-5-(1H-indazol-5-yl)-1H-imidazol-1-yl)-N,N-dimethylethanamine] | > 4.9
c1ccc(Nc2nc(-c3ccc4[nH]ncc4c3)c(-c3ccccc3)s2)cc1 [4-(1H-indazol-5-yl)-N,5-diphenylthiazol-2-amine] | > 4.9
c1ccc(CCNc2nc(-c3ccc4[nH]ncc4c3)cs2)cc1 [4-(1H-indazol-5-yl)-N-phenethylthiazol-2-amine] | 0.81
CCCCNc1c(-c2ccc3[nH]ncc3c2)nc2ncccn12 [N-butyl-2-(1H-indazol-5-yl)imidazo[1,2-a]pyrimidin-3-amine] | > 4.9
c1cn2c(NC3CCCCC3)c(-c3ccc4[nH]ncc4c3)nc2cn1 [N-cyclohexyl-2-(1H-indazol-5-yl)imidazo[1,2-a]pyrazin-3-amine] | 2.07
c1ccn2c(NC3CCCCC3)c(-c3ccc4[nH]ncc4c3)nc2c1 [N-cyclohexyl-2-(1H-indazol-5-yl)imidazo[1,2-a]pyridin-3-amine] | 8.67
